These results are taken from paper PMC11153306, “Unraveling the efficacy of verbascoside in thwarting MRSA pathogenicity by targeting sortase A” (Applied Microbiology and Biotechnology, 2024).

This experiment has as its target T1, sortase A (SrtA) (Staphylococcus aureus, UniProt Q2FV99).
T1 construct: 6 × His recombinant SrtA from pET28a::srtA
In words: intrinsic fluorescence quenching (Stern-Volmer, KA); supported by FRET inhibition of purified SrtA (IC50 […]) and reversibility by dilution. Type of experiment: binding. Particulars: read-out: intrinsic fluorescence quenching (Stern-Volmer, KA); supported by FRET inhibitio (converted). The text has this: This indicated a significant interaction between verbascoside and SrtA

T1 sequence (Q2FV99 whole entry): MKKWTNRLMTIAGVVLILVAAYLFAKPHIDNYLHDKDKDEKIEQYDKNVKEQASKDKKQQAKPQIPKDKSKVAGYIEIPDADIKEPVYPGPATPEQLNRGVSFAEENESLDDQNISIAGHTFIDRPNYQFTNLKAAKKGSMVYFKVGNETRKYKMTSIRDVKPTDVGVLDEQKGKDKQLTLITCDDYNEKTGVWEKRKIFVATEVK

With `C[C@@H]1O[C@@H](O[C@@H]2[C@@H](O)[C@H](OCCc3ccc(O)c(O)c3)O[C@H](CO)[C@H]2OC(=O)/C=C/c2ccc(O)c(O)c2)[C@H](O)[C@H](O)[C@H]1O` [verbascoside], the Kd is 41 µM.
